According to PubChem BioAssay (NCI):
Several values for one entry are separate records, joined by “and”; a condition that tells them apart may be missing. Equal values may be shown once.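 Values below derive from 48-hour exposures of cells grown in 96-well plates, with endpoints linearly interpolated between the two concentrations bracketing the appropriate inhibition level. Here, GI50 denotes the concentration required for 50% inhibition of growth. At the TGI there is no net growth.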

What was measured:
Test in all cases: growth of human tumour cells (NCI), 48 h
[1] = tested on: M14 melanoma
[2] = tested on: OVCAR-8 ovarian
[3] = tested on: CAKI-1 renal
[4] = tested on: HCC-2998 colon
[5] = tested on: 786-0 renal
[6] = tested on: SW-620 colon
[7] = tested on: SN12C renal
[8] = tested on: IGROV1 ovarian
[9] = tested on: SK-MEL-2 melanoma
[10] = tested on: PC-3 prostate

Compound | TGI [1] | TGI [2] [µM] | TGI [3] | TGI [4] | TGI [5] | TGI [6] | TGI [7] | TGI [8] | TGI [9] | TGI [10] | GI50 [1] [µM] | GI50 [2] | GI50 [3] [µM] | GI50 [4] [µM] | GI50 [5] [µM] | GI50 [6] [µM] | GI50 [7] [µM] | GI50 [8] | GI50 [9] | GI50 [10]
C=C(C)C(=O)N1c2ccc(OC)cc2CC1C(=O)OCC (stereo not drawn) | > 100 µM | > 100 | > 100 µM | > 100 µM | > 100 µM | > 100 µM | > 100 µM | > 100 µM | > 100 µM | > 100 µM | – | – | – | – | – | – | – | – | – | –
CSc1ccc(C(=O)/C=C/c2ccc(F)cc2)cc1 | > 100 µM | > 100 | > 100 µM | > 100 µM | > 100 µM | 70.8 µM | > 100 µM | 65.9 µM | > 100 µM | > 100 µM | > 100 | > 100 µM | > 100 | 41.8 | > 100 | 24.8 | > 100 | 28.2 µM | > 100 µM | 49.9 µM
C=C1C(=O)O[C@H]2[C@H]1CC/C(COC(=O)NCc1cccc(OC)c1)=C\CC[C@@]1(C)O[C@@H]21 | 5.16 µM | 5.63 | 3.62 µM | 31.1 µM | 3.61 µM | 3.28 µM | 4.4 µM | 8.4 µM | 25 µM | 6.07 µM | 2.08 | 2.03 µM | 1.62 | 15.3 | 1.84 | 1.52 | 1.77 | 2.76 µM | 11.4 µM | 2.26 µM
COc1ccc2nc(C3=CN(C4OC(CO)C(O)C(O)C4O)C4C=CC=CC34)sc2c1 (stereo not drawn) | 93.8 µM | 77.8 | > 100 µM | 53.1 µM | 58.4 µM | > 100 µM | 94.1 µM | 34.8 µM | > 100 µM | > 100 µM | 33 | 25.2 µM | 40.7 | 22.7 | 15.6 | 41.9 | 29.7 | 13.5 µM | 38.8 µM | 38.9 µM
Oc1oc(-c2ccccc2)nc1/C=C1/C=NN=N1 | > 100 µM | > 100 | > 100 µM | > 100 µM | > 100 µM | > 100 µM | > 100 µM | > 100 µM | > 100 µM | > 100 µM | – | – | – | – | – | – | – | – | – | –
C=C(CN(CCN1CCOCC1)CC(=C)c1ccc(C(=O)Nc2ccccc2N)cc1)c1ccc(C(=O)Nc2ccccc2N)cc1 | > 50 µM | 29.5 | 34.6 µM | 3.05 µM | 6.65 µM | 38.5 µM | 21.2 µM | 29.1 µM | > 50 µM | > 50 µM | 15.8 | 1.79 µM | 9.45 | 0.874 | 1.07 | 8.71 | 7.43 | 7.37 µM | 11.1 µM | 15 µM
CO[C@@]12[C@H](COC(N)=O)C3=C(C(=O)C(C)=C(N)C3=O)N1C[C@@H]1N[C@@H]12 | 4.08 µM and 12.2 µM and 2.06 µM | – | 6.18 µM and 25 µM and 3.07 µM | 2.88 µM and 2.98 µM and 3.91 µM | 4.99 µM and 10.2 µM and 4.74 µM | 13 µM and 9.44 µM and 24.2 µM | 9.59 µM and 25 µM and 30.8 µM | 8.88 µM and 8.21 µM and 5.97 µM | 4.96 µM and 7.5 µM and 6.61 µM | 17.4 µM and 20 µM and 25.7 µM | 1.09 | 1.52 µM and 0.925 µM | – | 1.14 | 0.717 | 0.665 | 0.995 | 3.24 µM and 1.5 µM | 4.21 µM and 2.54 µM | 2.65 µM and 4.99 µM
